As a reminder, the MIC is the smallest concentration in the dilution series that meets the test's criterion for growth inhibition.

MIC data for 3 compounds are collected here from ChEMBL document CHEMBL3797109, “Biochemometrics for Natural Products Research: Comparison of Data Analysis Approaches and Application to Identification of Bioactive Compounds” (2016).

SMILES strings stand for the structures. Converted amounts (≈) assume the structure as drawn.

For assay [1], the system named is Staphylococcus aureus. Put plainly: Antimicrobial activity against Staphylococcus aureus SA1199 after 24 hrs by CLSI method. It is filed as functional. To be noted: SA1199, 24 h.
The subject of assay [2] is Staphylococcus aureus. Put plainly: Antimicrobial activity against methicillin-resistant Staphylococcus aureus USA300 LAC AH1263 after 24 hrs by CLSI method. The note with it: USA300 LAC AH1263, 24 h. It is filed as functional.

As to `C[C@@H]1OC(=O)/C=C/[C@@H](O)[C@H](C)OC(=O)C[C@H](C)OC(=O)/C=C/[C@H]1O`, the MIC against Staphylococcus aureus [1] was 219 µM (≈ 75 µg/mL). In turn, `COc1cc(O)c2c(=O)oc3cc(O)cc(C)c3c2c1` registered an MIC in the assay with Staphylococcus aureus [1] of 275 µM (≈ 74.9 µg/mL). Take `COc1ccc2cc3[n+](cc2c1OC)CCc1cc2c(cc1-3)OCO2` [BERBERINE]: the MIC in the assay on Staphylococcus aureus [1] and against Staphylococcus aureus [2] was 446 µM each time.
